These results are taken from patent US8802635B2, “Antioxidant, anti-inflammatory, anti-radiation, metal chelating compounds and uses thereof” (Oneday—Biotech And Pharma Ltd., priority 2011, dated 2014).

Data set [1] relates to cellularity of the peritoneal exudates. Description: Ovalbumin-induced hypersensitivity (allergic peritonitis): peritoneal cellularity. The following applies: 125 mg/kg i.p. on days 13, 14, 15. It counts as in vivo, mice. As for the experimental part: Male BALB/c mice (6-8 weeks old) were housed under specific pathogen-free conditions and maintained on a 12-hour light/dark cycle, with food and water ad libitum. All materials and drugs were obtained from Sigma, Inc.
Mice in Groups A, B, C, and E (n=10 per group) were sensitized with intraperitoneal (i.p.) 200 μl of sterile PBS containing 100 μg ovalbumin (OVA) and 1.6 mg alum on days 0 and 7, and challenged with intraperitoneal (i.p.) 200 μl of sterile PBS containing 10 μg ovalbumin (OVA) on day 14 in order to induce an experimental model of allergic peritonitis. Mice in Group F (n=10) were injected with intraperitoneal (i.p) 200 μl sterile PBS (“sham” group, no OVA and no Alum).
Mice in Groups A, B, and C, were treated with 150 μl of sterile PBS containing peptides DY-66, DY-65 and DY-70, respectively, at a dose of 125 mg/kg on days 13, 14, and 15 via an i.p. route of administration.
Mice in Groups E and F were treated with 150 μl of sterile PBS on days 13, 14, and 15 via an i.p. route of administration. On day 14 the test articles (or PBS vehicle) were injected 30 minutes before injecting the OVA.

Data set [2] concerns HaCaT cells. Description: Hydrogen peroxide-induced HaCaT keratinocyte cytotoxicity (MTT). It counts as cell-based. The note with it: 90 μM hydrogen peroxide 30 min; MTT after 72 hours. Here is the method:
All five peptides were examined in this Example, and their activity was compared to the known CB3 peptide. HaCaT cells were seeded in 96-well plate at a concentration of 10×10^4 cells/ml for 24 hours. Then cells were incubated with the peptides at the indicated concentrations for 2.5 hours followed by washing with PBS and incubation with 90 μM hydrogen peroxide (without peptide) for 30 minutes. Cells were washed with PBS and incubated with culture medium containing peptide for 72 hours. Cell viability was tested by MTT. The effect of the peptides on cell viability was performed similarly without hydrogen peroxide exposure.

The test system of data set [3] is alanine aminotransferase (ALT) in plasma / liver necrosis. Description: Concanavalin A-induced liver inflammation in C57BL/6 mice. It counts as in vivo. Here is the method:
Six groups of C57BL/6 female mice (7-8 weeks old) containing 6 mice in each group were injected i.p. with different peptide on days −3, −2, −1 at a dose of 50 mg/kg or with PBS alone. On day zero all the mice were injected i.v. with 250 μg/mouse of Con A and 45 min. later they were injected i.p. with 150 mg/kg of each peptide or PBS.
Eight hours after Con A injection mice were bled into heparinized tubes (approx. 150 ul of blood from each mouse) and the levels of alanine aminotransferase (ALT) was measured in the plasma.
One day later the mice were sacrificed and their livers were placed in 4% formalin and sent for pathological examination.
Next, peptide DY-66 was examined and compared to N-acetylcysteine (NAC), CB3 and CB4. The compounds were tested according to the procedure described above. ConA dose was 180 μg/mouse.
FIG. 8 presents the change in ALT levels (%) for each of the tested compounds compared to PBS treatment (i.e., the ratio between ALT levels in samples obtained from mice treated with a tested compound and ALT levels in samples obtained from PBS-treated mice)

Data set [4] relates to HaCaT cells. The data set can be described thus: UVB-induced cytotoxicity in HaCaT cells (MTT). It counts as cell-based. The following applies: UVB 0.05 J/cm^2; MTT after 72 hours. Here is the method:
HaCaT cells were seeded in 96-wells plate (10×10^4/ml) and incubated in 37° C., 6% CO2 for 24 hours. Cells were incubated with the peptides at the indicated concentrations for 2.5 hours and washed (PBS). Then 100 μl PBS were added to each well followed by UVB irradiation (0.05 J/cm^2). Cells were washed with PBS and incubated with culture medium (DMEM, 100 μl) containing the peptides. MTT assay was carried out after 72 hours.

The test system of data set [5] is carrageenan-induced hind paw swelling. The data set can be described thus: Carrageenan-induced hind paw swelling. It counts as in vivo, mice. The following applies: 150 mg/kg i.p. 30 min prior to carrageenan; for swelling reduction compared to control: control saline only. Here is the method:
The above new five peptides were examined for anti-inflammatory activity, and their activity was compared to that of peptide CB3. Male ICR mice received an i.p. administration of each of the tested peptide (150 mg/kg) 30 min prior to the injection of carrageenan into the sub-plantar area of both of the animal's hind paws. Carrageenan was dissolved in water at concentration of 3 mg/ml and injected at a volume of 50 μl. Hind paw thickness was measured by Mitutoyo® micrometer before carrageenan injection and afterward at intervals of 1 hour between each measurement. Swelling was calculated as the difference between the thickness of the hind paw measured at each time interval and its size at time 0 (before carrageenan injection). n=6 foot pads (3 animals) for each group.
(In the carrageenan paw model, swelling and tenderness develop within hours.)

The test system of data set [6] is JNK (c-Jun N-terminal kinases). The data set can be described thus: Inhibition of oxidative stress (auranofin)-induced JNK phosphorylation in SH-SY5Y cells. The note with it: auranofin 5 μM. It counts as cell-based, Human. As for the experimental part:
Human neuroblastoma SH-SY5Y cells were maintained in Dulbecco's modified Eagle's medium (DMEM, Invitrogen) supplemented with 10% fetal bovine serum (Invitrogen), 100 μg/ml streptomycin and 100 U/ml penicillin G (Gibco). Cells were plated at a density of 6.25×10^4/cm^2 and incubated for 24 hours, after which they were exposed to different treatments.
SH-SY5Y cells were plated on 96-well plates and treated with Auranofin (AuF) (5 μM) for 30 min. Then the cells were washed with PBS and treated with either one of the peptides at the indicated concentrations. Twenty-four hours later, the cells were fixed with glutaraldehyde in final concentration of 0.5% for 10 min. Cells were washed 3 times with DDW dried over night, and washed once with borate buffer (0.1M, pH 8.5). The fixed cells were stained with 200 μl of 1% methylene blue dissolved in borate buffer for 1 hour. After extensive washing and drying, the color was extracted with 200 μl of 0.1 M HCl for 1 h at 37° C. and absorbance was read in spectrophotometer at 630 nm.
Twenty to thirty micrograms of protein samples were loaded on 10-12% SDS-PAGE gels. The proteins were then transferred electrophoretically to nitrocellulose (Whatman, Germany). The blots were blocked by incubation for 1 h at room temperature (RT) in TBS-T (25 mM Tris-HCl pH 7.4, 0.9% NaCl and 0.02% Tween-20) with 4% Difco skim milk (BD, USA), and incubated over-night at 4° C. with the primary antibody: pERK1/2 (Thr 202/Tyr204), mouse mAb, (1:6,000); p-SAPK/JNK (Thr183/Tyr185), rabbit mAb; SAPK/JNK, mouse mAb; p-p38MAP Kinase (Thr180/Tyr182), rabbit mAb; cleaved caspase 3, rabbit mAb. All antibodies were from Cell Signaling Tech. USA, used at 1:1000. Purified b Catenin, mouse mAb, (1:10,000; BD Transduction Laboratories, USA) diluted in 5% BSA, 0.04% Azide in TBS-T. Proteins were detected with Anti-Mouse or Anti-Rabbit IgG-HRP linked antibody (1:10,000; Cell Signaling, Tech. USA).

Setting [7] is: Con A 250 μg/mouse i.v., 8 h after Con A.

Non-standard residues stand in square brackets, D forms with d. βAla = NCCC(=O)O

The IC50 is the concentration at which inhibition is half-maximal. In the case of “N-acetyl-Cys-βAla-His-Cys-NH2 (Ac-C[βAla]HC-NH2; cysteine pairing not given here) [DY-66]”, in data set [1], the “effect on OVA-induced elevation of peritoneal exudate cellularity (in words)” value is reported as “significantly reduced the elevation” and the “rank order of reduction of peritoneal exudate cellularity” value is on record as “DY-65>DY-70>DY-66”. The “protection of cell viability after hydrogen peroxide exposure (in words)” value in data set [2] is “slightly elevated cell viability”. Further, the “necrotic area in liver, histo-pathological report (in words)” value in data set [3] (Con A 250 μg/mouse i.v.) is reported as “significant (p=0.011) decrease in necrotic area”. In data set [3] (setting [7]), the “reduction of ALT average compared to PBS-treated mice” value came out at 69% and the “reduction of ALT median compared to PBS-treated mice” value was determined as 75%. Moreover, in data set [3] (ConA dose 180 μg/mouse), the “reduction of ALT average compared to PBS-treated mice” value worked out at 71% and the “reduction of ALT median compared to PBS-treated mice” value was determined as 89%. Also, the “protection against UVB-induced cytotoxicity (in words)” value in data set [4] was “protective effect at low concentrations”. For the same substance, the “hind paw swelling compared to control (in words)” value in data set [5] is listed as “Reduced swelling compared to control”. This substance yielded a half-inhibitory concentration (IC50) in data set [6] of 86.9 µM.
On to “N-acetyl-Cys-Lys-Met-Cys-NH2 (Ac-CKMC-NH2; cysteine pairing not given here) [DY-65]”, for which, in data set [1], the “effect on OVA-induced elevation of peritoneal exudate cellularity (in words)” value was “significantly reduced the elevation”. Moreover, the “rank order of reduction of peritoneal exudate cellularity” value in data set [1] is “DY-65>DY-70>DY-66”. The “protection of cell viability after hydrogen peroxide exposure (in words)” value in data set [2] is listed as “slightly elevated cell viability”. The mice found dead in data set [3] (24 hours post Con A 250 μg, 6 mice in each group) came to 1. In data set [4], the “protection against UVB-induced cytotoxicity (in words)” value is given as “protective effect at low concentrations”. Further, the “swelling reduction compared to control” value in data set [5] (after 1 hour) was 40%; in data set [5] (after 2 hours), 27%; in data set [5] (after 3 hours) it was 34%. In addition, half-maximal inhibition in data set [6] (IC50) required 32.3 µM.
